Entries after “also recorded” stand apart in the source; their conditions may differ. Each block holds one compound with its values, some of them ahead of it.
Tests used:
3T3-L1 cells = experiment: 3T3-L1 adipocyte differentiation, Oil Red O staining of lipid accumulation; assay type: cell-based, Murine; conditions: for effect on AEA-mediated adipocyte differentiation (Oil Red O): 10 μM compound, co-treatment with AEA 10 μM, 7 days; for adipocyte differentiation / lipid accumulation (Oil Red O staining): 1, 10, 50 μM for 7 days
[1] = target: T1, Human Recombinant FAAH (fatty acid amide hydrolase) (Homo sapiens, UniProt O00519); experiment: FAAH inhibition, fluorimetric assay with OMP substrate, recombinant enzyme; assay type: biochemical; conditions: for activity / potency towards FAAH (in words): recombinant FAAH; for time-dependence of FAAH inhibition: pre-incubation of enzyme with inhibitor up to 1 h
T1 sequence (O00519 1-579): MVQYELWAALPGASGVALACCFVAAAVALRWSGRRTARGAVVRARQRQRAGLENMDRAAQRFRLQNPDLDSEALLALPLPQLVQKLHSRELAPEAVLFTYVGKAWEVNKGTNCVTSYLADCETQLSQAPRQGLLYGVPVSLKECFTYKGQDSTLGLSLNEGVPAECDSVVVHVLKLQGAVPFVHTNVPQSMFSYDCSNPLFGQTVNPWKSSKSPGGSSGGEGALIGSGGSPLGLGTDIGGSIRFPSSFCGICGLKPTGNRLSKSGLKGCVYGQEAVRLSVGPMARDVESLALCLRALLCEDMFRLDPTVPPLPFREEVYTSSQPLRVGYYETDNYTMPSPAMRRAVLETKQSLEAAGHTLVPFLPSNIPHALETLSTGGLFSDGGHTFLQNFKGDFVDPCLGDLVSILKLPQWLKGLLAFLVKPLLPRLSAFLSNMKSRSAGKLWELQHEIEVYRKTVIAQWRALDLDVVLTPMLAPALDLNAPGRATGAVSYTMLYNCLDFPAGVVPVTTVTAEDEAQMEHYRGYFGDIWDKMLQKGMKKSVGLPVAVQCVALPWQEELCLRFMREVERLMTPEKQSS

[2] = target: T2, Human Recombinant hCE2 (carboxylesterase 2) (Homo sapiens, UniProt O00748); experiment: Esterase inhibition, fluorimetric assay with CMNA substrate; assay type: biochemical
T2 sequence (O00748 27-559): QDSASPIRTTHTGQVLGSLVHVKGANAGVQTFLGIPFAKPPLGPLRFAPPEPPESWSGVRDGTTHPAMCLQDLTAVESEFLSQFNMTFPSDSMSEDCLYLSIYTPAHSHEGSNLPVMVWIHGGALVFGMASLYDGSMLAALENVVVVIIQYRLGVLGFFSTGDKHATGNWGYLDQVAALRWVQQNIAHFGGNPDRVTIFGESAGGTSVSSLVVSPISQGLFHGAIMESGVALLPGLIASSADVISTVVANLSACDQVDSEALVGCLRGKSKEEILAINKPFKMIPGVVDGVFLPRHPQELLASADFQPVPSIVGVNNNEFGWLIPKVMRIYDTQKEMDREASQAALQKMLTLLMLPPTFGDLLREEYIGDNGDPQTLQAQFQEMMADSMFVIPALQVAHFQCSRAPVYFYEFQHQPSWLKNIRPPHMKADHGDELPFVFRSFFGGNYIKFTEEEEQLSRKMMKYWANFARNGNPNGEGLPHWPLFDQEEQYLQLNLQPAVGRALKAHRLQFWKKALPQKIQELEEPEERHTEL

[3] = target: T3, Human Recombinant AADAC (arylacetamide deacetylase) (Homo sapiens, UniProt P22760); experiment: as above; assay type: biochemical
T3 sequence (P22760 1-399): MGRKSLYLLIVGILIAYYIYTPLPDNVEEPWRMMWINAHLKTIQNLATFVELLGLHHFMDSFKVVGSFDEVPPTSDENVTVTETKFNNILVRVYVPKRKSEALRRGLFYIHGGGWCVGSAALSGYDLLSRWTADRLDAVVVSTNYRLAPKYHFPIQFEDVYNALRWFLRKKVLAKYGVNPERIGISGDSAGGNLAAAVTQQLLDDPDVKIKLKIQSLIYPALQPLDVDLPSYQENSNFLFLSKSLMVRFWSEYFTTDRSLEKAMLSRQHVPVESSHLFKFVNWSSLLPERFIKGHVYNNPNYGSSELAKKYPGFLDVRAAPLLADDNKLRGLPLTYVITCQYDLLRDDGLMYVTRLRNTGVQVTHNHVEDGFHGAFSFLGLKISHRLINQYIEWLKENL

[4] = target: T4, Mouse Brain Microsomes (FAAH) (Mus musculus, UniProt O08914); experiment: FAAH inhibition in brain microsomes, OMP hydrolysis
T4 sequence (O08914 1-579): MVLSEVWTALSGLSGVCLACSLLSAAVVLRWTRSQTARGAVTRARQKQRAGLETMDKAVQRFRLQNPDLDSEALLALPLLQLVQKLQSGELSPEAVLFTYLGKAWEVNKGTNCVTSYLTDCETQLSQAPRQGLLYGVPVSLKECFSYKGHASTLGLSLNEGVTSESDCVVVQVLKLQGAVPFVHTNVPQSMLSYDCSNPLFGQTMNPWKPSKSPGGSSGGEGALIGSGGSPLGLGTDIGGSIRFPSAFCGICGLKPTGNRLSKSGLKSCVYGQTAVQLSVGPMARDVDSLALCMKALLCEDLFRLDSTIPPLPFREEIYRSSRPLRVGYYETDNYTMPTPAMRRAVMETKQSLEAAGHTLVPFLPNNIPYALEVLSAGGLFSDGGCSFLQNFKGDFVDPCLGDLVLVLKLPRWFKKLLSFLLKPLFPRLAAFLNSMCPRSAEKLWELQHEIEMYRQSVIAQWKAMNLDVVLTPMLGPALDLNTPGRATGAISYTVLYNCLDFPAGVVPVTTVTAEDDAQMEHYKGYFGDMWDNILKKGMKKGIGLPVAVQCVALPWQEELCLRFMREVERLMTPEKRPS

[5] = target: T5, Human Recombinant hCE1 (carboxylesterase 1) (Homo sapiens, UniProt P23141); experiment: Esterase inhibition, fluorimetric assay with CMNA substrate; assay type: biochemical
T5 sequence (P23141 18-567): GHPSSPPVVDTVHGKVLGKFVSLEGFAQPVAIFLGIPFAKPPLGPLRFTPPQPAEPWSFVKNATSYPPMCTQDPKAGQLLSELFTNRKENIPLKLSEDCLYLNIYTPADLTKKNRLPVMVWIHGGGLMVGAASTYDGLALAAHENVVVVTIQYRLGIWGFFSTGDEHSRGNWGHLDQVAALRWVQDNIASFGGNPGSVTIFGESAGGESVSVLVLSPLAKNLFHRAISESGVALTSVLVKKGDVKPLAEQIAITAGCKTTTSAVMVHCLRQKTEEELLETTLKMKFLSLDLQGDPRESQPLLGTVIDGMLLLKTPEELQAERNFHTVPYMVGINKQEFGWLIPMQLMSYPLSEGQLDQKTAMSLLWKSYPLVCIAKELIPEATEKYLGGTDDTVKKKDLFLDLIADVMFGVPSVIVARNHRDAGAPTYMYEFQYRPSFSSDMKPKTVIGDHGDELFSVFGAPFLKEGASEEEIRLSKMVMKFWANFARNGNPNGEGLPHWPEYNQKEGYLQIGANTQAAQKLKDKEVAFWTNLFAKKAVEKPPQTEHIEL

[6] = target: T6, Rat Brain Microsomes (FAAH) (Rattus norvegicus, UniProt P97612); experiment: FAAH inhibition in brain microsomes, OMP hydrolysis
T6 sequence (P97612 1-579): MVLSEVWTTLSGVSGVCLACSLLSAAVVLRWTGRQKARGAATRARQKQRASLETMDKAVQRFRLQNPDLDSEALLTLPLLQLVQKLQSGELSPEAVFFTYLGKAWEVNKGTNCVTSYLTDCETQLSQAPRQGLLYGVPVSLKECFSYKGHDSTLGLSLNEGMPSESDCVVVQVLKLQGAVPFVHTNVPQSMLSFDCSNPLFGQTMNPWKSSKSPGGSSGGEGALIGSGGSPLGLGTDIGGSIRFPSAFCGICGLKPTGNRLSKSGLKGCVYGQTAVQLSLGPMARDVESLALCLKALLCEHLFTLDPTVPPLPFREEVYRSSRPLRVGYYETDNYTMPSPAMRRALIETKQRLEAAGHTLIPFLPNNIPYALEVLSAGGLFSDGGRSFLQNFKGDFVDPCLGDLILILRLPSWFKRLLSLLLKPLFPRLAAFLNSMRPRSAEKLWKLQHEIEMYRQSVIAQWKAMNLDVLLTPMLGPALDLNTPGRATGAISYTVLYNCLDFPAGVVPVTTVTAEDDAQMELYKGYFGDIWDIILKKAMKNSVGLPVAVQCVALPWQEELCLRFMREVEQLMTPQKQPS

[7] = test system: PPARγ, C/EBPα and FABP4 mRNA expression; experiment: RT-PCR of adipocyte marker genes in 3T3-L1 cells; assay type: cell-based, Murine; conditions: for effect on AEA-induced adipocyte marker expression: 3T3-L1, 10 μM compound, co-treatment with AEA 10 μM; for PPARγ, C/EBPα and FABP4 mRNA expression: 3T3-L1, 1, 10, 50 μM for 7 days, n = 3
[8] = human exposure; ref Calafat et al., 2010; Tefre de Renzy-Martin et al., 2014; cited from earlier work
[9] = as inhibitor concentration increases

Compound: O=C(Nc1ccccc1)N1CCN(Cc2ccc3ccccc3n2)CC1 [PF622, N-phenyl-4-(quinolin-2-ylmethyl)piperazine-1-carboxamide]
effect on AEA-mediated adipocyte differentiation (Oil Red O) (3T3-L1 cells): do not synergize to increase adipocyte differentiation
adipocyte differentiation / lipid accumulation (Oil Red O staining) (3T3-L1 cells): had no effects at any of the doses tested

Compound: COC(=O)c1ccc(O)cc1 [Methylparaben, methylparaben]
activity / potency towards FAAH (in words) [1]: completely inactive

Compound: O=C(OCC1CCCCC1)c1ccc(O)cc1 [Compound 5]
decrease in potency relative to benzylparaben ([1]; FAAH IC50, 5 min pre-incubation): 2 fold

Compound: CCCCOC(=O)c1ccc(O)cc1 [Butylparaben, butylparaben]
urinary concentrations [8]: 0.1 to 0.5 µM
IC50 [2]: > 10 µM
IC50 [3]: > 10 µM
time-dependence of FAAH inhibition [1]: independent on incubation time
effect on AEA-mediated adipocyte differentiation (Oil Red O) (3T3-L1 cells): do not synergize to increase adipocyte differentiation
adipocyte differentiation / lipid accumulation (Oil Red O staining) (3T3-L1 cells): dose-dependently enhanced 3T3-L1 adipocyte differentiation
IC50 [4]: 1600 nM
IC50 [5]: > 10 µM
IC50 [6]: 1100 nM
effect on AEA-induced adipocyte marker expression ([7]; 7 days): not significantly changed
PPARγ, C/EBPα and FABP4 mRNA expression [7]: enhanced PPARγ, C/EBPα and FABP4 mRNA expression

Compound: NC(=O)c1cccc(-c2cccc(OC(=O)NC3CCCCC3)c2)c1 [URB597, 3′-carbamoyl-[1,1′-biphenyl]-3-yl cyclohexylcarbamate, reference compound]
IC50 [2]: 0.73 µM
IC50 [3]: > 10 µM
effect on AEA-mediated adipocyte differentiation (Oil Red O) (3T3-L1 cells): do not synergize to increase adipocyte differentiation
adipocyte differentiation / lipid accumulation (Oil Red O staining) (3T3-L1 cells): only exposure to 10 μM of URB597 resulted in increased lipid accumulation; also recorded: increased differentiation and only at a concentration of 10 μM, not at 50 μM
OMP hydrolysis remaining ([4]; 50 nM, mouse brain microsomes): less than 20%
inhibition at 0.05 µM ([4]; read-out: inhibition of activity (OMP hydrolysis)): > 80%
IC50 [5]: 2.2 µM
effect on AEA-induced adipocyte marker expression ([7]; 7 days): not significantly changed
PPARγ, C/EBPα and FABP4 mRNA expression [7]: increased PPARγ, C/EBPα and FABP4 mRNA expression

Compound: O=C(O)c1ccc(O)cc1 [4-HO-benzoate, 4-hydroxybenzoic acid]
activity / potency towards FAAH (in words) [1]: completely inactive

Compound: CCCCCCCOC(=O)c1ccc(O)cc1 [Compound 6, heptylparaben]
activity / potency towards FAAH (in words) [1]: no change in potency

Compound: CCCCC/C=C\C/C=C\C/C=C\C/C=C\CCCC(=O)NCCO [AEA, arachidonoyl ethanolamide, reference compound]
expression of markers of differentiation ([7]; 3T3-L1, AEA 10 μM, 7 days): increased expression of several markers of differentiation (PPARγ and C/EBPα)

Further lines, with some results ahead:

activity / potency towards FAAH (in words) [1]: completely removed potency
Compound: O=C(OCc1ccccc1)c1ccc([N+](=O)[O-])cc1 [Compound 4]

activity / potency towards FAAH (in words) [1]: completely removed potency
Compound: COc1ccc(C(=O)OCc2ccccc2)cc1 [Compound 2]

IC50 [2]: > 10 µM
IC50 [3]: > 10 µM
mechanism of FAAH inhibition [1]: mixed type mechanism
Ki ([1]; Ki, linear mixed-type model of inhibition): 52 ± 14 nM
potency relative to URB597 (less potent) ([1]; after a 5 min incubation): 3 fold
change in KM app [1, 9]: 18 to 98 µM
change in Vmax app [1, 9]: 5.5 RFU/s to 2.0 RFU/s
α value ([1]; linear mixed-type model of inhibition): 9.7 ± 6.6
time-dependence of FAAH inhibition [1]: independent on incubation time
Ki ([1]; upper limit of relative Ki, at saturating substrate, mixed-type interaction): ≤ 1000 nM
IC50 [4]: 210 nM
IC50 [5]: > 10 µM
IC50 [6]: 230 nM
Compound: O=C(OCc1ccccc1)c1ccc(O)cc1 [Benzylparaben, benzylparaben]
effect on AEA-mediated adipocyte differentiation (Oil Red O) (3T3-L1 cells): do not synergize to increase adipocyte differentiation
adipocyte differentiation / lipid accumulation (Oil Red O staining) (3T3-L1 cells): dose-dependently enhanced 3T3-L1 adipocyte differentiation
effect on AEA-induced adipocyte marker expression ([7]; 7 days): not significantly changed
PPARγ, C/EBPα and FABP4 mRNA expression [7]: enhanced PPARγ, C/EBPα and FABP4 mRNA expression

activity / potency towards FAAH (in words) [1]: completely removed potency
Compound: O=C(OCc1ccccc1)c1ccccc1 [Compound 3]

— article PMC5096949 (Toxicology letters, 2016)
